The values that follow come from ChEMBL document CHEMBL5257016, “Rho Kinase (ROCK) Inhibitors and Their Therapeutic Potential” (J Med Chem, 2016).

A value given as a limit tells only on which side of the number the result lay.

Broadly, the IC50 is the concentration at which inhibition is half-maximal. Usually Ki stands for a dissociation constant, usually derived from enzyme kinetics or from competition with a known ligand. The CL/F is the apparent clearance, not corrected for the fraction that reaches the circulation. Broadly, the half-life is the time needed for the level to fall by half in the phase considered. What is called bioavailability is the share of a dose that reaches the circulation, judged against a reference dose that is usually intravenous.

In data set [1] the target is T1, Rho-associated protein kinase 2 (Homo sapiens, UniProt O75116). The data set can be described thus: Inhibition of ROCK2 (unknown origin).
T1 sequence (O75116 whole entry): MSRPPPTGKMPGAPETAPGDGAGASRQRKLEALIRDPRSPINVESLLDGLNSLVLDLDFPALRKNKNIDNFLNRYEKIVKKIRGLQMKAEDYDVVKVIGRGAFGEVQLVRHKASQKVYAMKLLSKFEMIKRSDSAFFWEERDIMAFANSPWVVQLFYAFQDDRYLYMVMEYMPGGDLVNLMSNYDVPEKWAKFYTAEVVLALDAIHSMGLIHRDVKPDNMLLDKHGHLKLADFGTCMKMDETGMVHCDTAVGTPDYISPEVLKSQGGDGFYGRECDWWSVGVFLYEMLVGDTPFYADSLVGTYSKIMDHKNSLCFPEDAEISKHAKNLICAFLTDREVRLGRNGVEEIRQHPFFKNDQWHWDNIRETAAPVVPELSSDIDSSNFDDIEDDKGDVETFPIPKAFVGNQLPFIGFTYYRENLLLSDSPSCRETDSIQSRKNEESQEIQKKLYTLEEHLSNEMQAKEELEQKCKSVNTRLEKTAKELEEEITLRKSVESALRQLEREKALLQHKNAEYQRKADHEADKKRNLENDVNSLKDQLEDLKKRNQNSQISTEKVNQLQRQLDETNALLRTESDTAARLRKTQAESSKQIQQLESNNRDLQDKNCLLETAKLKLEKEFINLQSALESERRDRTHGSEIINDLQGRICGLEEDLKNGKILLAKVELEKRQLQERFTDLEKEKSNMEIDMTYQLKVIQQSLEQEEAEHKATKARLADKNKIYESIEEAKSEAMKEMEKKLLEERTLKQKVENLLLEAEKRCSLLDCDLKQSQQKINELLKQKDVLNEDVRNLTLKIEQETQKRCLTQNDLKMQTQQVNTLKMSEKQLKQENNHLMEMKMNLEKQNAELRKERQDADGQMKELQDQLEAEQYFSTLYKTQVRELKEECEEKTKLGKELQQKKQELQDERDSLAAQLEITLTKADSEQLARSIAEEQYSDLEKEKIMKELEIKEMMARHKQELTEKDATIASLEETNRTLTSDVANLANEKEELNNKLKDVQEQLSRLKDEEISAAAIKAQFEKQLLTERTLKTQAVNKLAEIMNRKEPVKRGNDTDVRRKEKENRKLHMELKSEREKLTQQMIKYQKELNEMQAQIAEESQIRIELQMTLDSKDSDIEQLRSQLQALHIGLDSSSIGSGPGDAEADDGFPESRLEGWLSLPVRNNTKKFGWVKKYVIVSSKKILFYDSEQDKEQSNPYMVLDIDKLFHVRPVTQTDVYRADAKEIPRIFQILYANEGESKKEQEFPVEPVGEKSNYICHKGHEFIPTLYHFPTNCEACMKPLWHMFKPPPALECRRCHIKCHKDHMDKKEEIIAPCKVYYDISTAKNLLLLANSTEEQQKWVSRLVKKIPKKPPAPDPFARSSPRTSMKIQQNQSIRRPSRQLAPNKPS
Data set [2] has as its target T1, Rho-associated protein kinase 2. The data set can be described thus: Inhibition of ROCK2 (unknown origin) using STK2 as substrate incubated for 4 hrs by HTRF assay.
Data set [3] deals with cAMP-dependent protein kinase (PKA) (Homo sapiens, UniProt P22694+P17612+P22612). Description: Inhibition of PKA (unknown origin). In kind it is protein assay.
In data set [4] the target is T1, Rho-associated protein kinase 2. The data set can be described thus: Inhibition of human recombinant ROCK2 assessed as inhibition constant by microfluidic mobility shift method.
The species named for data set [5] is Mus musculus. The data set can be described thus: Antidiabetic activity in oxygen induced retinopathy mouse model assessed as decrease in pathological neovascularization at 0.4 %, thrice daily for 6 days by microscopic analysis. In kind it is functional. Set-up: scale not given: the % may be the effect or the level left. To be noted: time 6 day.
The species named for data set [6] is Mus musculus. Description: Antidiabetic activity in oxygen induced retinopathy mouse model assessed as decrease in pathological neovascularization at 0.8 %, thrice daily for 6 days by microscopic analysis. In kind it is functional. Set-up: scale not given: the % may be the effect or the level left. To be noted: time 6 day.
Data set [7] is filed under the species Mus musculus. The data set can be described thus: Antidiabetic activity in oxygen induced retinopathy mouse model assessed as decrease in fluorescein leakage at 0.8 %, thrice daily for 6 days by fluorescein angiography. The format is functional. Set-up: scale not given: the % may be the effect or the level left. To be noted: time 6 day.
The target of data set [8] is T2, Rho-associated protein kinase 1 (Homo sapiens, UniProt Q13464). The data set can be described thus: Inhibition of ROCK1 (unknown origin) assessed as inhibition constant.
T2 sequence (Q13464 whole entry): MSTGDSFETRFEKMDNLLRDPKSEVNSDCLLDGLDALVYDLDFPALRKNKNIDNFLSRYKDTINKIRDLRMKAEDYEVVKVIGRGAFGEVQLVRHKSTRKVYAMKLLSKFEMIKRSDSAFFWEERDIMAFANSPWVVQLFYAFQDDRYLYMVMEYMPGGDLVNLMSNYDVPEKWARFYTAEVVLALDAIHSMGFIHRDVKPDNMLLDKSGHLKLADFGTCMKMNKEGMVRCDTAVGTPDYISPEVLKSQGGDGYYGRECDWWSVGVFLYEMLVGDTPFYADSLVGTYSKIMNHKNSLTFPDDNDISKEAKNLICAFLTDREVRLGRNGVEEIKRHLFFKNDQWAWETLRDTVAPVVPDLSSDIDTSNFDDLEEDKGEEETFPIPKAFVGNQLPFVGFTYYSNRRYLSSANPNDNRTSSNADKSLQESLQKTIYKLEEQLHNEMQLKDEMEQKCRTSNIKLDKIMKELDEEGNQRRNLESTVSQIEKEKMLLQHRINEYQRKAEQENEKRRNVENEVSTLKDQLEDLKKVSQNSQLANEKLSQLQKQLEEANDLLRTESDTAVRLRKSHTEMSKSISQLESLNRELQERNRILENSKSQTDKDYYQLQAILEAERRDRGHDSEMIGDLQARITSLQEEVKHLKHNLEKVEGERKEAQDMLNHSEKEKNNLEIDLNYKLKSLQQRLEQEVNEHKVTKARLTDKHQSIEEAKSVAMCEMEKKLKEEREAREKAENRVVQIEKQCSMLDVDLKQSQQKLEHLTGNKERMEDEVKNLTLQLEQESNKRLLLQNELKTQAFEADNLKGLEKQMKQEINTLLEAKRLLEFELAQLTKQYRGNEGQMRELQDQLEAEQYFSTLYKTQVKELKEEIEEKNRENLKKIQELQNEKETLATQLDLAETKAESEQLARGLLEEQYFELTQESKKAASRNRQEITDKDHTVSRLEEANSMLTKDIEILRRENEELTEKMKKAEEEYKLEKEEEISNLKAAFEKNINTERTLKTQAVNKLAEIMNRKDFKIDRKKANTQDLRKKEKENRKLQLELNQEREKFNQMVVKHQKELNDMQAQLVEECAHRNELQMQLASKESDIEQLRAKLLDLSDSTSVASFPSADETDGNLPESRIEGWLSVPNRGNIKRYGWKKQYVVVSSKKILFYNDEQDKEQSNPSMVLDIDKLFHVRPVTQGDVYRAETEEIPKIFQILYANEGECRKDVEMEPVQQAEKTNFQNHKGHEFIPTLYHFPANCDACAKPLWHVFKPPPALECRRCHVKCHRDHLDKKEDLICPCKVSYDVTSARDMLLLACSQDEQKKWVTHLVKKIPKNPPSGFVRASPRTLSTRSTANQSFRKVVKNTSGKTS
The target in data set [9] is T1, Rho-associated protein kinase 2. Description: Inhibition of ROCK2 (unknown origin) assessed as inhibition constant.
The target of data set [10] is T2, Rho-associated protein kinase 1. Description: Inhibition of human recombinant ROCK1 using S6-peptide as substrate as substrate preincubated for 10 mins followed by 33P-labeled ATP addition and measured after 20 mins by Micro-Beta counter analysis.
Data set [11] has the same target. Description: Inhibition of ROCK1 (unknown origin).
Data set [12] has the same target. The data set can be described thus: Inhibition of human ROCK1.
A short description of data set [13]: Induction of neurogenesis in human Embryonic stem cells assessed as cell proliferation incubated for 4 days by CellTiterGlo luminescence assay. To be noted: 96 h. In kind it is functional, cell-based. A general note: ATP-based viability assays read luminescence as a measure of living cells.
For data set [14], the target named is T1, Rho-associated protein kinase 2. Description: Inhibition of GST-tagged ROCK2 (5 to 554 residues) (unknown origin) using S6-peptide as substrate preincubated for 15 mins followed by 33P-ATP addition and measured after 120 mins by scintillation counter analysis.
Data set [15] addresses T2, Rho-associated protein kinase 1. Description: Inhibition of GST-tagged ROCK1 (1 to 535 residues) (unknown origin) using S6-peptide as substrate preincubated for 15 mins followed by 33P-ATP addition and measured after 120 mins by scintillation counter analysis.
The nature of data set [16]: Inhibition of p70S6K (unknown origin). Set-up: species or system Homo sapiens.
In data set [17] the target is Ribosomal protein S6 kinase alpha-1 (Homo sapiens, UniProt Q15418). The data set can be described thus: Inhibition of RSK1 (unknown origin).
Sequence of Ribosomal protein S6 kinase alpha-1 (Q15418 whole entry): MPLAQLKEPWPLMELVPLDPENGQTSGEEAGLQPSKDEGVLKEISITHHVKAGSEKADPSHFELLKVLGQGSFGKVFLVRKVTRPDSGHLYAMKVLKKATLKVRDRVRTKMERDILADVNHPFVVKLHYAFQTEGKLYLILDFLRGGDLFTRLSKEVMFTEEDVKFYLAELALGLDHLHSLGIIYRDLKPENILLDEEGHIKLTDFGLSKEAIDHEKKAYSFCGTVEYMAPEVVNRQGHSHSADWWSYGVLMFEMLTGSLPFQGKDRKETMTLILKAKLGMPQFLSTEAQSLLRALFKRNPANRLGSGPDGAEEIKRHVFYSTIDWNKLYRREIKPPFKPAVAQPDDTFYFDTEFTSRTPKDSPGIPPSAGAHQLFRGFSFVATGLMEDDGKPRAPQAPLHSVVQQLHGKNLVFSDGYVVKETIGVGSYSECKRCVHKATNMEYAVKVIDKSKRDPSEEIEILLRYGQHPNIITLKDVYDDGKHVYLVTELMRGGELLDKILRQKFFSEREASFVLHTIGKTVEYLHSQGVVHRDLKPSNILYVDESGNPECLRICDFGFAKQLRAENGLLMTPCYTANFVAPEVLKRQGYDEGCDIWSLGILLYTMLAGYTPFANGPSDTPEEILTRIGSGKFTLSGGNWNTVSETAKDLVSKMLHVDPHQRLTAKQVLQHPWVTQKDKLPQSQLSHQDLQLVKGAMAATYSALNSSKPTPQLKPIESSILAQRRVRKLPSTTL
In data set [18] the target is RAC-beta serine/threonine-protein kinase (Homo sapiens, UniProt P31751). The data set can be described thus: Inhibition of AKT2 (unknown origin).
Sequence of RAC-beta serine/threonine-protein kinase (P31751 whole entry): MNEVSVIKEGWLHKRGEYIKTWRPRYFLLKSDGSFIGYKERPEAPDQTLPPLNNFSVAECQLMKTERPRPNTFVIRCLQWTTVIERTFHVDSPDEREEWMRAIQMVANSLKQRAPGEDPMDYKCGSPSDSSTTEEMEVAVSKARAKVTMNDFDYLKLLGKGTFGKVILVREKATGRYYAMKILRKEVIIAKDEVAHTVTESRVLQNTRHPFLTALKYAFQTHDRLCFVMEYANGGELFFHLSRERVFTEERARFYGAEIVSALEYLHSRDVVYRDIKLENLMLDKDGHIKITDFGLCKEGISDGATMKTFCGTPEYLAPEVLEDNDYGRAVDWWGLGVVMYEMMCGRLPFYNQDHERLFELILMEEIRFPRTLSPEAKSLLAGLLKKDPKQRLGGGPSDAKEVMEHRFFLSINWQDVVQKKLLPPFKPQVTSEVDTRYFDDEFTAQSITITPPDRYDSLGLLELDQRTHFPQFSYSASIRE
Data set [19] deals with RAC-alpha serine/threonine-protein kinase (Homo sapiens, UniProt P31749). The data set can be described thus: Inhibition of AKT1 (unknown origin).
Sequence of RAC-alpha serine/threonine-protein kinase (P31749 whole entry): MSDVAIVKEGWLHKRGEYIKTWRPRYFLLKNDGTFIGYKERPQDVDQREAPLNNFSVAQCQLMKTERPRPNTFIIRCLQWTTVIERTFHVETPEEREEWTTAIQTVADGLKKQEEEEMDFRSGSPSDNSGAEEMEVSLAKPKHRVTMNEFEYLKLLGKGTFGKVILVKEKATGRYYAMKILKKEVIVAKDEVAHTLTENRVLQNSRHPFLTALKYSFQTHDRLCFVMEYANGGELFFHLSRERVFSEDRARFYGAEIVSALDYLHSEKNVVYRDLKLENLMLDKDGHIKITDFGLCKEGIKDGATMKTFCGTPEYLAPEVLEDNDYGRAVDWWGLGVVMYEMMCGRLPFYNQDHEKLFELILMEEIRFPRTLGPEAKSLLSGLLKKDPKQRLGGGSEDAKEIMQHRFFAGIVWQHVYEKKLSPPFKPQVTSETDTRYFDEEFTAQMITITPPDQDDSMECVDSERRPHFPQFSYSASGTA
The target of data set [20] is Nicotinamide phosphoribosyltransferase (Homo sapiens, UniProt P43490). The data set can be described thus: Inhibition of recombinant human C-terminally-His tagged NAMPT incubated for 2 to 3 hrs by TR-FRET assay. On the technique in general: In TR-FRET formats the signal depends on donor and acceptor labels being close together.
Sequence of Nicotinamide phosphoribosyltransferase (P43490 whole entry): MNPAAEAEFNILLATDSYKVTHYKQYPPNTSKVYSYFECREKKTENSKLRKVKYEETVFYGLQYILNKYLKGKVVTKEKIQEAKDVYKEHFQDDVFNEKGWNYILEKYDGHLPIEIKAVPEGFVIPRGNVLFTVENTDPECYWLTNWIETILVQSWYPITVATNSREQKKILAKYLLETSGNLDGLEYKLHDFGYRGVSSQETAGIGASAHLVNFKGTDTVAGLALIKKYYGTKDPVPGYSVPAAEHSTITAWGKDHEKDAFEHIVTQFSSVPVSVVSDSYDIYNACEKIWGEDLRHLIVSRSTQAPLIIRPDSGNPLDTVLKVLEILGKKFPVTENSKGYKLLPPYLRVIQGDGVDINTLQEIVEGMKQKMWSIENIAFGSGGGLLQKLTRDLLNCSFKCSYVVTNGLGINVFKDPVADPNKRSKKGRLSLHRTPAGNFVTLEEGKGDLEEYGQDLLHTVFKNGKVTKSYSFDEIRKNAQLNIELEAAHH
Data set [21] is described as follows: Clearance of Wistar rat at 0.910 mg/kg, po and measured upto 7 hrs by HPLC/MS analysis. As to conditions: in vivo, dose 0.91 mg/kg. In kind it is ADME, organism-based.
Data set [22] can be described thus: Half life of Wistar rat at 0.910 mg/kg, po and measured upto 7 hrs by HPLC/MS analysis. In kind it is ADME, organism-based. As to conditions: in vivo, dose 0.91 mg/kg.
Data set [23] can be described thus: Oral bioavailability of Wistar rat at 0.910 mg/kg and measured upto 7 hrs by HPLC/MS analysis. The format is ADME, organism-based. To be noted: in vivo, dose 0.91 mg/kg.
In data set [24] the target is Rho-associated protein kinase 2 (Rattus norvegicus, UniProt Q62868). Description: Inhibition of ROCK2 in rat A7R5 cells assessed as MLC phosphorylation at T18/S19 by ELISA. In kind it is cell-based. On the technique in general: ELISA stands for enzyme-linked immunosorbent assay.
Data set [25] is described as follows: Stability of compound in human plasma assessed as half life at 1 uM by LC-MS/MS analysis. The format is ADME, cell-free.
Data set [26] has as its target T1, Rho-associated protein kinase 2. Description: Inhibition of ROCK2 (unknown origin) using 33P-ATP as substrate and measured after 120 mins by radiometric analysis.
For data set [27] the target is unchanged. The data set can be described thus: Inhibition of human recombinant ROCK2 using 5FAM-AKRRRLSSLRA-COOH as substrate preincubated for 10 mins followed by substrate addition in presence of ATP and measured after 45 mins by TR-FRET assay.

In the case of `N#Cc1c[nH]c2nccc(Oc3c(F)cc(Nc4ccnc(N)n4)cc3F)c12`, it took 1 nM to reach half-maximal inhibition in data set [1] (IC50).

`COc1cccc(CNC(=O)c2c[nH]c3ccc(-c4cn[nH]c4)cc23)c1` gave an IC50 in [2] of 67 nM.

In [3], `COc1cccc(CNC(=O)c2[nH]c3cc(-c4cn[nH]c4)ccc3c2CN(C)C)c1` returned a 50% inhibitory concentration (IC50) of 1510 nM.

In the case of `O=c1[nH]ccc2cc(OC3CCNCC3)ccc12` [SAR-407899 FREE BASE], the Ki in data set [4] came out at 36 nM.

On to `COc1cccc(CNC(=O)c2c[nH]c3cc(-c4cn[nH]c4)ccc23)c1`, for which the half-maximal inhibitory concentration (IC50) was 3340 nM in [3] and below 1 nM in data set [2].

As to `COc1cccc(CNC(=O)c2nn(C)c3cc(-c4cn[nH]c4)ccc23)c1`, the values for the half-inhibitory concentration (IC50) in data set [3] and in [2] were 1520 nM and below 1 nM, respectively.

Take `C[C@H]1CNCCCN1S(=O)(=O)c1cccc2cncc(F)c12`: the Activity in data set [5] turned out to be 23%; in [6], 41.9%; in data set [7], 58.4%.

In [2], `COc1cccc(CNC(=O)c2n[nH]c3ccc(-c4cn[nH]c4)cc23)c1` returned an IC50 of 67 nM.

With `OCCOc1cccc(CN2CC[C@@H](Nc3cccc4cnccc34)C2)c1`, the inhibition constant Ki amounted to 5 nM in data set [8] and 14 nM in [9].

Take `COc1cccc(CNC(=O)c2n[nH]c3cc(-c4cn[nH]c4)ccc23)c1`: the 50% inhibitory concentration (IC50) is 3340 nM in data set [3] and below 1 nM in data set [2].

Regarding `Nc1nc(Nc2ccc(Oc3ccc4[nH]ncc4c3)c(F)c2)cc(-c2ccncc2)n1`, the half-maximal inhibitory concentration (IC50) in data set [10] turned out to be 20 nM.

Regarding `O=C(NCc1cccc(O)c1)Nc1nc(-c2ccncc2)cs1`, the IC50 in data set [11] is 14.5 nM.

As for `O=C(Nc1ccc(-c2ccncc2)cc1)N[C@@H](CO)c1ccccc1`, the IC50 in data set [12] is 85 nM.

On to `COc1cccc(CNC(=O)c2cc3cc(-c4cn[nH]c4)ccc3[nH]2)c1`, for which the IC50 is above 20000 nM in data set [3] and 17 nM in data set [2].

On to `COc1cccc(CNC(=O)c2nc3ccc(-c4cn[nH]c4)cc3[nH]2)c1`, for which the IC50 was found to be 1530 nM in data set [3] and 4 nM in [2].

On to `COc1cccc(CN(CCN(C)C)C(=O)c2n[nH]c3cc(-c4cn[nH]c4)ccc23)c1`, for which the 50% inhibitory concentration (IC50) in data set [3] is 184 nM; in data set [2], below 1 nM.

`COc1cccc(CN(C(=O)c2n[nH]c3cc(-c4cn[nH]c4)ccc23)C2CC2)c1`: the IC50 in data set [3] was above 20000 nM; in data set [2], 6 nM.

Take `COc1cc(-c2cn[nH]c2)ccc1NC(=O)CCc1ccccc1`: in data set [13], the IC50 is 84 nM.

On to `COc1cccc(CNC(=O)c2cc3ccc(-c4cn[nH]c4)cc3[nH]2)c1`, for which the half-maximal inhibitory concentration (IC50) in data set [3] was 6740 nM; in [2], 1.6 nM.

For `Cc1c(Oc2ccc(CN)cc2F)ccc2c1B(O)OC2`, the 50% inhibitory concentration (IC50) in [14] came out at 220 nM; in [15], 250 nM.

With `NCc1ccc(Oc2ccc3c(c2)B(O)OC3)c(Cl)c1`, the values for the 50% inhibitory concentration (IC50) in [14] and in data set [15] were 340 nM and 730 nM, respectively.

Consider `Nc1nc(Nc2ccc(Oc3ccc4[nH]ncc4c3)c(F)c2)cc(N2C[C@@H]3CCCN[C@@H]3C2)n1`, for which the IC50 in [10] was 6 nM.

As for `C[C@@H](N)[C@H]1CC[C@H](C(=O)Nc2ccnc3[nH]ccc23)CC1`, the inhibitory constant (Ki) in [9] stood at 10 nM.

Consider `NC[C@@](O)(c1ccc(Cl)cc1)c1ccc(-c2cn[nH]c2)cc1` [AT-13148], for which the half-inhibitory concentration (IC50) was below 10 nM in data set [16]; 85 nM in data set [17]; below 10 nM in data set [11]; 402 nM in data set [18]; 38 nM in [19]; below 10 nM in data set [3]. Also, in [1], the IC50 was below 10 nM.

On to `O=C(Nc1ccc(-c2n[nH]c(=O)c3c2CCCC3)cc1)N1Cc2ccc(F)cc2C1`, for which the concentration for half-maximal inhibition (IC50) in data set [20] came to 45 nM.

`O=C(NCc1c(Cl)cccc1Cl)Nc1ccc2[nH]ncc2c1` had an IC50 in [1] of 20 nM.

On to `Cc1c[nH]c2nccc(Oc3c(F)cc(Nc4cc(Cl)nc(N)n4)cc3F)c12` [BAY-549], for which the apparent clearance CL/F in data set [21] is 28.3 mL/min/kg. In data set [22], this molecule had a half-life of 1.2 h. The molecule also came in with a bioavailability in [23] of 48%.

With `Cc1nnnn1-c1ccc(C(=O)NCc2cccc(C(=O)NC3=NC4CCN(C)CC4S3)c2)cc1` (stereo unspecified), in [1], the IC50 was 6 nM.

As for `O=C(Nc1ccc(-c2cn[nH]c2)cc1)[C@@H]1CNC[C@H]1c1ccccc1`, the IC50 in [1] was 33 nM.

On to `O=C(Nc1ccc(-c2cn[nH]c2)cc1)OCc1ccccc1`, for which the IC50 in data set [3] is above 20000 nM.

Regarding `O=C(Cc1ccccc1Cl)Nc1ccc(-c2cn[nH]c2)cc1OCCN1CCCC1`, in data set [1], the IC50 worked out at 9 nM.

In the case of `O=C(OCC1CCCO1)c1cccc(CN2CCCC(Nc3ccc4[nH]ncc4c3)C2)c1` (stereo unspecified), the 50% inhibitory concentration (IC50) in data set [24] is 240 nM; in data set [26], 3 nM. Also, in data set [25], the half-life at 1 µM is below 5 min.

On to `O=C(Nc1ccc(-c2n[nH]c(=O)c3c2CCCC3)cc1)N1Cc2ccc(Cl)cc2C1`, for which the half-maximal inhibitory concentration (IC50) in [20] came out at 44 nM.

For `C[C@@H](N)c1ccc(C(=O)Nc2ccncc2)cc1`, the IC50 in data set [1] amounted to 200 nM.

`NC(=O)c1cc(F)c(N[C@H]2CC[C@H](N)CC2)cc1F` displayed a 50% inhibitory concentration (IC50) in [1] of 26 nM.

Regarding `NCc1ccc(Oc2ccc3c(c2)B(O)OC3)c(F)c1`, the concentration for half-maximal inhibition (IC50) in [14] was determined as 540 nM; in [15], 810 nM.

For `COc1nc(Nc2ccc3[nH]ncc3c2)nc(N2CCNCC2)n1`, the half-maximal inhibitory concentration (IC50) in [27] is 20 nM.
